Experimental data taken from patent US20110262383A1, “Naphthalimide Dosing by N-Acetyl Transferase Genotyping” (ChemGenex Pharmaceuticals, Inc., priority 2004, published 2011).
Where a name gives a salt, the structure may show the parent alone.

Legend:
[1] = tested on: white blood cell count (WBC); details: patients; cited from earlier work
Neutrophils = assay: Myelosuppression (reduction of neutrophils) by NAT-2 genotype in patients; assay type: in vivo, human
Procedure: Thirty-two (32) patients were treated amonafide dihydrochloride. Sixteen (16) were male and sixteen (16) were female. The mean age was 65 years. The dose schedule was days 1, 8, 15 and thereafter every 28 days. The dosages ranged from 300 to 500 mg/m^2 in a dose escalation studied to determine dose limiting toxicity (DLT).
Patients were genotyped to determine their NAT-2 (N-acetyl transferase) genotype. See D. W. Hein, et al., “Molecular Genetics and Epidemiology of the NAT1 and NAT2 Acetylation Polymorphisms,” Cancer Epidemiology, Biomarkers & Prevention Vol. 9, 29-42, January 2000.

[2] = Water solubility of amonafide salts; assay type: physicochemical; details: as compared to a monohydrochloride salt

Row | SMILES | effect on white blood cell count [1] | Average % Reduction of Neutrophils (Neutrophils; I/R (Fast) genotype, 18 patients, dose 400 mg/m2) [%] | Average % Reduction of Neutrophils (Neutrophils; I/R (Fast) genotype, 18 patients, dose 400 mg/m2, listed as amonafide) [%] | Average % Reduction of Neutrophils (Neutrophils; S (Slow) genotype, 14 patients, dose 500 mg/m2) [%] | solubility in water [2]
1 | CC(=O)Nc1cc2c3c(cccc3c1)C(=O)N(CCN(C)C)C2=O [acetyl amonafide, N-acetyl amonafide] | induce leukocytopenia and, in particular, granulocytopenia | – | – | – | –
2 | CN(C)CCN1C(=O)c2cccc3cc(N)cc(c23)C1=O [amonafide dihydrochloride, 5-amino-2-[(dimethylamine)ethyl]-1H-benz[de-]isoquinoline-1,3-(2H)-dione] | – | 78 | ~80 | 55 | more soluble in water
